How the values were obtained:
Assay in all cases: relative viability (nuclei count vs DMSO), 5 days (fraction); higher = more cells survive
R406 + Lapatinib = compound: COc1cc(Nc2ncc(F)c(Nc3ccc4c(n3)NC(=O)C(C)(C)O4)n2)cc(OC)c1OC [R406] + CS(=O)(=O)CCNCc1ccc(-c2ccc3ncnc(Nc4ccc(OCc5cccc(F)c5)c(Cl)c4)c3c2)o1 [Lapatinib] (partner 2 µM)
Outline: (§1)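 Lung cancer cell lines were seeded in 1536-well plates and dosed by pin tool the next day, with either a single drug or a fixed anchor-drug dose combined with five library-drug doses (not always all listed) spaced in √10 steps. Five days later, one step fixed the cells and stained their nuclei (final 0.05% Triton X-100, 1% formaldehyde, 1 ug/ml Hoechst), and nuclei were counted on 4× images. Relative viability is the nuclei count in treated wells divided by the count in vehicle wells, and each value is the median of duplicate plates.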

Daporinad + Tozasertib = compound: O=C(/C=C/c1cccnc1)NCCCCC1CCN(C(=O)c2ccccc2)CC1 [Daporinad] + Cc1cc(Nc2cc(N3CCN(C)CC3)nc(Sc3ccc(NC(=O)C4CC4)cc3)n2)n[nH]1 [Tozasertib] (partner 0.1 µM)
Outline: as §1

R406 + Olaparib = compound: COc1cc(Nc2ncc(F)c(Nc3ccc4c(n3)NC(=O)C(C)(C)O4)n2)cc(OC)c1OC [R406] + O=C(c1cc(Cc2n[nH]c(=O)c3ccccc23)ccc1F)N1CCN(C(=O)C2CC2)CC1 [Olaparib] (partner 8 µM)
Outline: as §1

Daporinad + Decitabine = compound: O=C(/C=C/c1cccnc1)NCCCCC1CCN(C(=O)c2ccccc2)CC1 [Daporinad] + Nc1ncn([C@H]2C[C@H](O)[C@@H](CO)O2)c(=O)n1 [Decitabine] (partner 2 µM)
Outline: as §1

| Cell Line | relative viability (R406 + Lapatinib; first compound 0.08 µM) | relative viability (R406 + Lapatinib; first compound 0.253 µM) | relative viability (R406 + Lapatinib; first compound 0.8 µM) | relative viability (R406 + Lapatinib; first compound 2.53 µM) | relative viability (R406 + Lapatinib; first compound 8 µM) | relative viability (Daporinad + Tozasertib; first compound 0.0005 µM) | relative viability (Daporinad + Tozasertib; first compound 0.001581 µM) | relative viability (Daporinad + Tozasertib; first compound 0.005 µM) | relative viability (Daporinad + Tozasertib; first compound 0.01581 µM) | relative viability (R406 + Olaparib; first compound 0.08 µM) | relative viability (R406 + Olaparib; first compound 0.253 µM) | relative viability (R406 + Olaparib; first compound 0.8 µM) | relative viability (R406 + Olaparib; first compound 2.53 µM) | relative viability (R406 + Olaparib; first compound 8 µM) | relative viability (Daporinad + Decitabine; first compound 0.0005 µM) | relative viability (Daporinad + Decitabine; first compound 0.001581 µM) | relative viability (Daporinad + Decitabine; first compound 0.005 µM) | relative viability (Daporinad + Decitabine; first compound 0.01581 µM) |
| --- | --- | --- | --- | --- | --- | --- | --- | --- | --- | --- | --- | --- | --- | --- | --- | --- | --- | --- |
| LXF-289 | 0.868 | 1.01 | 0.9 | 0.921 | 0.605 | 0.23 | 0.188 | 0.176 | 0.148 | 1.08 | 1.18 | 1.12 | 1.02 | 0.219 | 0.4 | 0.426 | 0.397 | 0.332 |
| NCI-H23 | 1.12 | 1.54 | 1.28 | 0.589 | 0.593 | 0.421 | 0.374 | 0.424 | 0.295 | 0.277 | 0.271 | 0.236 | 0.263 | 0.139 | 0.319 | 0.306 | 0.272 | 0.23 |
| NCI-H441 | – | – | – | – | – | 0.512 | 0.646 | 0.718 | 0.668 | 0.429 | 0.693 | 0.619 | 0.489 | 0.322 | 0.249 | 0.204 | 0.281 | 0.237 |
| NCI-H522 | – | – | – | – | – | 0.599 | 0.533 | 0.484 | 0.433 | 0.518 | 0.578 | 0.713 | 0.636 | 0.511 | 0.626 | 0.689 | 0.634 | 0.628 |
| NCI-H1299 | 1.01 | 0.982 | 0.98 | 0.933 | 0.721 | – | – | – | – | 0.972 | 0.986 | 0.957 | 1.05 | 0.731 | – | – | – | – |
| NCI-H1563 | 0.886 | 1.06 | 1.06 | 0.506 | 0.574 | – | – | – | – | – | – | – | – | – | – | – | – | – |
| NCI-H1623 | – | – | – | – | – | 0.438 | 0.44 | 0.39 | 0.445 | – | – | – | – | – | – | – | – | – |
| NCI-H1648 | – | – | – | – | – | 0.362 | 0.652 | 0.416 | 0.6 | 0.758 | 1.06 | 0.906 | 0.886 | 0.884 | 0.463 | 0.528 | 0.511 | 0.44 |
| NCI-H1703 | 1.52 | – | 1.03 | 0.218 | 0.17 | – | – | – | – | 0.298 | 0.474 | 0.355 | 0.277 | 0.124 | – | – | – | – |
| NCI-H1792 | 0.844 | 1.1 | 1.06 | 0.776 | 0.765 | – | – | – | – | 0.456 | 0.402 | 0.491 | 0.189 | 0.194 | 0.545 | 0.65 | 0.683 | 0.406 |
| NCI-H2228 | 1.13 | 1.27 | 1.5 | 0.13 | 0.131 | 0.264 | 0.201 | 0.322 | 0.294 | 0.487 | 0.731 | 0.848 | 0.341 | 0.238 | – | – | – | – |
| NCI-H2342 | – | – | – | – | – | 0.53 | 0.524 | 0.51 | 0.445 | 0.395 | 0.415 | 0.447 | 0.355 | 0.439 | 0.814 | 0.58 | 0.67 | 0.72 |
| SW 900 | – | – | – | – | – | 0.638 | 0.473 | 0.735 | 0.346 | 0.956 | 0.855 | 0.57 | 0.492 | 0.115 | 0.438 | – | 0.403 | 0.374 |
